Experimental findings from patent publication US20230097700A1, “AZETIDINE SULFONAMIDE COMPOUND” (DAIICHI SANKYO COMPANY, LIMITED, priority 2019, published 2023) are described below.

The structures appear in SMILES notation. Counter-ions that a name gives are not always drawn.

The experiment concerns activated T cells (CD4+ T cells derived from the mouse spleen). The experiment is described as follows: Incorporation of 3H-thymidine into activated T cells. In kind it is cell-based, mouse (C57BL/6J). Conditions: 3H-thymidine incorporation, mouse spleen CD4+ T cells activated with Dynabeads Mouse T-Activator CD3/CD28. How it is done:
Effect of a test substance on incorporation of ^3H-thymidine was evaluated using T cells derived from the mouse spleen. The spleen was excised out from a C57BL/6J mouse euthanized, cut into pieces, ground on a cell strainer (40 μm mesh) and centrifuged to collect spleen cells. CD4+ T cells were isolated from the spleen cells by use of EasySep Mouse CD4+ T cell isolation kit (STEMCELL Technologies). CD4+ T cells were seeded to a 96-well round-bottom plate. Test substance dissolved in DMSO (dimethyl sulfoxide) or vehicle (DMSO) was added to culture medium and Dynabeads Mouse T-Activator CD3/CD28 (Thermo Fisher Scientific Inc.) was added. Culture was carried out at 37° C. in 5% CO2. After culture was carried out for 24 hours, ^3H-thymidine (PerkinElmer) diluted with the culture medium was added to individual wells. Culture was further carried out overnight at 37° C. in 5% CO2. In order to measure ^3H-thymidine incorporated in nuclei of the cells, the cells were collected on a filter plate UniFilter-96 GF/B (PerkinElmer) by use of a FilterMate Universal Harvester (PerkinElmer). After the filter plate was placed in a dryer and allowed to stand still for 2 hours or more, scintillation cocktail MicroScint-O (PerkinElmer) was added and radioactivity was measured by TopCount NXT (PerkinElmer). With the radioactivity of a group not containing a test substance being specified as 100% and the radioactivity of a group not activated being specified as 0%, relative radioactivity values of individual wells to which the test substance was added (proliferation rate, % of vehicle) were calculated. The values of “% of vehicle” were entered in analysis software Prism (Version 4.03, GraphPad Software). “Nonlinear regression Log (inhibitor) vs reaction variable tilt” was selected and sigmoid type-fitting (Bottom=0, Top=100) was carried out to calculate 50% inhibition concentration (IC50). The compound of the present invention suppresses ^3H-thymidine incorporation in activated T cells.
One may read the IC50 as the concentration at which inhibition is half-maximal. A high value points to lower potency. Turning to `N[C@@H](Cc1cccc(S(=O)(=O)N2CC(Oc3ccc(-c4ccccc4)cc3)(c3ccccc3)C2)c1)C(=O)O` [Example 2, (2S)-2-Amino-3-(3-{3-[([1,1′-biphenyl]-4-yl)oxy]-3-phenylazetidin-1-sulfonyl}phenyl)propanoic acid], the IC50 came to 12 nM.

The compound `N[C@@H](Cc1cccc(S(=O)(=O)N2CC(Oc3cccc(-c4ccccc4)c3)(c3ccccc3)C2)c1)C(=O)O` [Example 3, (2S)-2-Amino-3-(3-{3-[([1,1′-biphenyl]-3-yl)oxy]-3-phenylazetidin-1-sulfonyl)phenyl)propanoic acid] displayed an IC50 of 35 nM.

On to `CC(=O)c1ccc(OC2(c3ccc(F)cc3)CN(S(=O)(=O)c3cccc(C[C@H](N)C(=O)O)c3)C2)cc1F` [Example 4, (2S)-3-{3-[3-(4-Acetyl-3-fluorophenoxy)-3-(4-fluorophenyl)azetidine-1-sulfonyl]phenyl}-2-aminopropanoic acid monohydrochloride], for which inhibition was half-maximal at 12 nM (IC50). Compound `CC(=O)c1cc(OC2(c3ccc(F)cc3)CN(S(=O)(=O)c3cccc(C[C@H](N)C(=O)O)c3)C2)ccc1F` [Example 5, (2S)-3-{3-[3-(3-Acetyl-4-fluorophenoxy)-3-(4-fluorophenyl)azetidine-1-sulfonyl]phenyl}-2-aminopropanoic acid monohydrochloride] yielded an IC50 of 30 nM. As for `N[C@@H](Cc1cccc(S(=O)(=O)N2CC(Oc3ccc4nccnc4c3)(c3ccccc3)C2)c1)C(=O)O` [Example 6, (2S)-2-Amino-3-(3-{3-phenyl-3-[(quinoxalin-6-yl)oxy]azetidin-1-sulfonyl}phenyl)propanoic acid monohydrochloride], the figure is 6.6 nM; as for `N[C@@H](Cc1cccc(S(=O)(=O)N2CC(Oc3ccc4c(c3)OCCO4)(c3ccccc3)C2)c1)C(=O)O` [Example 7, (2S)-2-Amino-3-(3-{3-[(2,3-dihydro-1,4-benzodioxin-6-yl)oxy]-3-phenylazetidin-1-sulfonyl}phenyl)propanoic acid monohydrochloride], 16 nM; as for `N[C@@H](Cc1cccc(S(=O)(=O)N2CC(Oc3ccc4c(c3)CCNC4=O)(c3ccc(F)cc3)C2)c1)C(=O)O` [Example 8, (2S)-2-Amino-3-(3-{3-(4-fluorophenyl)-3-[(1-oxo-1,2,3,4-tetrahydroisoquinolin-6-yl)oxy]azetidin-1-sulfonyl}phenyl)propanoic acid monohydrochloride], 13 nM. As for `CC(=O)c1ccc(OC2(c3ccc(Cl)cc3)CN(S(=O)(=O)c3cccc(C[C@H](N)C(=O)O)c3)C2)cc1` [Example 9, (2S)-3-{3-[3-(4-Acetylphenoxy)-3-(4-chlorophenyl)azetidin-1yl]sulfonylphenyl}-2-aminopropanoic acid monohydrochloride], the figure is 7.6 nM; as for `N[C@@H](Cc1cccc(S(=O)(=O)N2CC(Oc3ccc4cn[nH]c4c3)(c3ccccc3)C2)c1)C(=O)O` [Example 10, (2S)-2-Amino-3-(3-{3-[(1H-indazol-6-yl)oxy]-3-phenylazetidine-1-sulfonyl}phenyl)propanoic acid monohydrochloride], 10 nM; as for `CC(C)NC(=O)c1ccc(OC2(c3ccccc3)CN(S(=O)(=O)c3cccc(C[C@H](N)C(=O)O)c3)C2)cc1` [Example 11, (2S)-2-Amino-3-[3-(3-phenyl-3-{4-[(propan-2-yl)carbamoyl]phenoxy}azetidin-1-sulfonyl)phenyl]propanoic acid monoformate], 26 nM.

Take `N[C@@H](Cc1cccc(S(=O)(=O)N2CC(Oc3ccc(OC(F)F)cc3)(c3ccccc3)C2)c1)C(=O)O` [Example 12, (2S)-2-Amino-3-(3-{3-[4-(difluoromethoxy)phenoxy]-3-phenylazetidin-1-sulfonyl}phenyl)propanoic acid monoformate]: it took 21 nM to reach half-maximal inhibition (IC50). The figure for `Cc1ccc(C2(Oc3ccc(C#N)cc3)CN(S(=O)(=O)c3cccc(C[C@H](N)C(=O)O)c3)C2)cc1` [Example 13, (2S)-2-Amino-3-{3-[3-(4-cyanophenoxy)-3-(4-methylphenyl)azetidine-1-sulfonyl]phenyl}propanoic acid monoformate] is 9.1 nM. As for `CC(=O)c1ccc(OC2(c3ccc(C)cc3)CN(S(=O)(=O)c3cccc(C[C@H](N)C(=O)O)c3)C2)cc1` [Example 14, (2S)-3-{3-[3-(4-Acetylphenoxy)-3-(4-methylphenyl)azetidine-1-sulfonyl]phenyl}-2-aminopropanoic acid monoformate], the figure is 7.7 nM; as for `N[C@@H](Cc1cccc(S(=O)(=O)N2CC(Oc3cccc(F)c3)(c3ccc(F)cc3)C2)c1)C(=O)O` [Example 15, (2S)-Amino-3-(3-{[3-(3-fluorophenoxy)-3-(4-fluorophenyl)azetidin-1-yl]sulfonyl}phenyl)propanoic acid], 14 nM; as for `Cc1ccc(OC2(c3ccccc3)CN(S(=O)(=O)c3cccc(C[C@H](N)C(=O)O)c3)C2)cc1` [Example 16, (2S)-Amino-3-(3-{[3-phenyl-3-(p-tolyloxy)azetidin-1-yl]sulfonyl)phenyl)propanoic acid], 10 nM. As for `N[C@@H](Cc1cccc(S(=O)(=O)N2CC(Oc3ccc(F)c(Cl)c3)(c3ccccc3)C2)c1)C(=O)O` [Example 17, (2S)-Amino-3-(3-{[3-(3-chloro-4-fluorophenoxy)-3-phenylazetidin-1-yl]sulfonyl}phenyl)propanoic acid], the figure is 23 nM; as for `N#Cc1ccc(OC2(c3ccccc3)CN(S(=O)(=O)c3cccc(C[C@H](N)C(=O)O)c3)C2)cc1` [Example 18, (2S)-Amino-3-(3-{[3-(4-cyanophenoxy)-3-phenylazetidin-1-yl]sulfonyl}phenyl)propanoic acid], 14 nM. `CCC(=O)c1ccc(OC2(c3ccc(F)cc3)CN(S(=O)(=O)c3cccc(C[C@H](N)C(=O)O)c3)C2)cc1` [Example 19, (2S)-2-Amino-3-{3-[3-(4-fluorophenyl)-3-(4-propanoylphenoxy)azetidin-1-yl]sulfonylphenyl}propanoic acid monotrifluoroacetate] registered an IC50 of 30 nM.

For `NC(=O)c1ccc(OC2(c3ccccc3)CN(S(=O)(=O)c3cccc(C[C@H](N)C(=O)O)c3)C2)cc1` [Example 20, (2S)-2-Amino-3-{3-[3-(4-carbamoylphenoxy)-3-phenylazetidine-1-sulfonyl]phenyl}propanoic acid monoformate], the IC50 is 8.8 nM. As for `CN(C)c1ccc(OC2(c3ccc(F)cc3)CN(S(=O)(=O)c3cccc(C[C@H](N)C(=O)O)c3)C2)cc1` [Example 21, (2S)-2-Amino-3-{3-[4-(dimethylamino)phenoxy]-3-(4-fluorophenyl)azetidin-1-yl]sulfonylphenyl}propanoic acid monohydrochloride], the figure is 3.7 nM; as for `NC(=O)c1ccc(OC2(c3ccc(F)cc3)CN(S(=O)(=O)c3cccc(C[C@H](N)C(=O)O)c3)C2)cc1` [Example 22, (2S)-2-Amino-3-{3-[3-(4-carbamoylphenoxy)-3-(4-fluorophenyl)azetidine-1-sulfonyl]phenyl}propanoic acid monotrifluoroacetate], 4.8 nM; as for `[2H]c1c([2H])c([2H])c(OC2(c3ccccc3)CN(S(=O)(=O)c3cccc(C[C@H](N)C(=O)O)c3)C2)c([2H])c1[2H]` [Example 24, (2S)-2-Amino-3-(3-{3-phenyl-3-[(^2H5)phenyloxy]azetidin-1-sulfonyl}phenyl)propanoic acid], 12 nM.

`C[C@H](OC(=O)[C@@H](N)Cc1cccc(S(=O)(=O)N2CC(Oc3cccc(F)c3)(c3ccccc3)C2)c1)C(=O)N(C)C` [Example 31, (2S)-1-(Dimethylamino)-1-oxopropan-2-yl (2S)-2-amino-3-{3-[3-(3-fluorophenoxy)-3-phenylazetidin-1-sulfonyl]phenyl}propanoate monotrifluoroacetate] had an IC50 of 21 nM. For `C[C@@H](OC(=O)[C@@H](N)Cc1cccc(S(=O)(=O)N2CC(Oc3cccc(F)c3)(c3ccccc3)C2)c1)C(=O)N(C)C` [Example 32, (2R)-1-(Dimethylamino)-1-oxopropan-2-yl (2S)-2-amino-3-{3-[3-(3-fluorophenoxy)-3-phenylazetidin-1-sulfonyl]phenyl}propanoate monotrifluoroacetate], the IC50 worked out at 18 nM. As for `N#Cc1ccc(OC2(c3ccc(F)cc3)CN(S(=O)(=O)c3cccc(C[C@H](N)C(=O)O)c3)C2)cc1` [Example 34, (2S)-2-Amino-3-{3-[3-(4-cyanophenoxy)-3-(4-fluorophenyl)azetidine-1-sulfonyl]phenyl}propanoic acid monohydrochloride], the figure is 3.3 nM. As for `N[C@@H](Cc1cccc(S(=O)(=O)N2CC(Oc3ccc(Cl)cc3)(c3ccc(F)cc3)C2)c1)C(=O)O` [Example 35, (2S)-2-Amino-3-{3-[3-(4-chlorophenoxy)-3-(4-fluorophenyl)azetidine-1-sulfonyl]phenyl}propanoic acid monohydrochloride], the figure is 24 nM.
